Patent US20220380341A1, “INHIBITORS OF HIV-1 NEF FOR THE TREATMENT OF HIV DISEASE” (priority 2018, published 2022)
Read-outs that look alike come from different tables or passages of the source.

Key:
TZM-bl cell line = assay type: cell-based; conditions: 1 μM
How it was run: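 Luciferase read-out 48 h post-infection; compound at 1 μM during HIV-1NL4-3 infection of TZM-bl cells. Percent inhibition scaled to DMSO wild-type virus (0%) and DMSO Nef-defective virus (100% of Nef-dependent effect). Viability checked separately in uninfected cells by Cell Titer Blue.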

HIV-1 NefNL4-3 = HIV-1 NefNL4-3 (Human immunodeficiency virus type 1 group M subtype B, UniProt P03406, A33V/T15A/T51N/V11I); test: Surface plasmon resonance binding to recombinant full-length Nef (NL4-3); conditions: for T, minutes (residence time): 2-step induced fit, T = 1/koff2; for RU30/RUNef (extent of binding): response units at 30 μM relative to Nef immobilized on the SPR chip
HIV-1NL4-3 = test: HIV-1 infectivity assay in TZM-bl reporter cell line (LTR-luciferase, 48 h); assay type: cell-based; conditions: for inhibition at 1 µM: Human immunodeficiency virus 1, TZM-bl
How it was run: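 Nef-dependent infectivity in TZM-bl cells: HIV-1NL4-3 infection with 1 μM compound, luciferase read at 48 h, normalized against DMSO wild-type and Nef-defective controls. Compound cytotoxicity in uninfected cells measured by Cell Titer Blue.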

[1] = KD, M, Table 4, SPR fit 2-step induced fit, KD = koff/kon × koff2/(koff2 + kon2)
[2] = Nef NL4-3 Binding, SPR 2-state fitting KD, Table 1, 2-step induced-fit model
[3] = 1.0 μM, TZM-bl reporter cell line, Table 4, read-out: % Infectivity Inhibition
[4] = 48 h, Table 1, TZM-bl cells, 1 μM, 48 h, 100% = Nef-defective HIV-1, read-out: HIV-1 Infectivity % Inhibition Norm. to Δ-Nef @ 1 μM
[5] = read-out: Nef NL4-3 Binding, SPR 1:1 or 2-site fitting KD2, Table 1, 2-site fit, second component
[6] = Table 2, 1:1 Langmuir fit where the KD2 cell says '1 to 1 fitting', else 2-site fit
[7] = 48 h, Table 2, TZM-bl cells, 1 μM, 48 h, 100% = Nef-defective HIV-1, read-out: HIV-1 Infectivity % Inhibition Norm. to Δ-Nef @ 1 μM

Row | SMILES | % Cell Viability (TZM-bl cell line; human) [%] | Percent Viability @ 1 μM (TZM-bl cells) (TZM-bl cell line; human) [%] | Kd (HIV-1 NefNL4-3) [nM] | Kd (HIV-1 NefNL4-3; [1]) [nM] | T, minutes (residence time) (HIV-1 NefNL4-3; Table 4) | RU30/RUNef (extent of binding) (HIV-1 NefNL4-3) | inhibition at 1 µM (HIV-1NL4-3; [3]) [%] | inhibition at 1 µM (HIV-1NL4-3; [4]) [%] | Nef NL4-3 Binding, SPR 1:1 or 2-site fitting KD1 (HIV-1 NefNL4-3; [6]) | inhibition at 1 µM (HIV-1NL4-3; [7]) [%] | other results
1 | O=C(c1nn(-c2nc3ccccc3[nH]2)c(O)c1CCc1ccc(F)cc1)N1CCCCC1 [Compound I-406, 1-(1H-1,3-benzodiazol-2-yl)-4-[2-(4-fluorophenyl)ethyl]-3-(piperidine-1-carbonyl)-1H-pyrazol-5-ol] | 100 | 109.7 | 549 | 2670 | 2.85E + 00 minutes | 7.13E- 03 | 0 | -4.4 | – | – | Kd (HIV-1 NefNL4-3; Nef NL4-3 Binding, SPR 1:1 or 2-site fitting KD2, Table 1, 2-site fit, second component): 1230 nM; Kd (HIV-1 NefNL4-3; [2]): 2670 nM
2 | Oc1c(CCc2ccc(F)cc2)c(C2CCNCC2)nn1-c1nc2ccc(Cl)cc2[nH]1 [Compound I-503, 1-(5-chloro-1H-1,3-benzodiazol-2-yl)-4-[2-(4-fluorophenyl)ethyl]-3-(piperidin-4-yl)-1H-pyrazol-5-ol] | 90.7 | 90.7 | 256 | 0.617 | 3.18E + 04 minutes | 1.05E- 02 | 0 | -94.1 | – | – | Kd (HIV-1 NefNL4-3; [2]): 0.511 nM; Kd (HIV-1 NefNL4-3; [5]): 3020 nM
3 | Oc1c(CC2CCNCC2)c(-c2ccc(C(F)(F)F)cc2)nn1-c1nc2ccccc2[nH]1 [Compound I-504, 1-(1H-1,3-benzodiazol-2-yl)-4-[(piperidin-4-yl)methyl]-3-[4-(trifluoromethyl)phenyl]-1H-pyrazol-5-ol] | – | 101.3 | 10600 | – | – | – | – | -43.7 | – | – | –
4 | CS(=O)(=O)c1ccc(-c2nn(-c3nc4cc(Cl)ccc4[nH]3)c(O)c2CCC2CCNCC2)cc1 [Compound I-550, 1-(5-chloro-1H-1,3-benzodiazol-2-yl)-3-(4-methanesulfonylphenyl)-4-[2-(piperidin-4-yl)ethyl]-1H-pyrazol-5-ol] | 98.8 | 98.8 | 282 | 8.54 | 3.33E + 03 minutes | 1.75E- 02 | 0 | -12.9 | – | – | Kd (HIV-1 NefNL4-3; [2]): 8.54 nM; Kd (HIV-1 NefNL4-3; [5]): 6200 nM
5 | Oc1c(CCC2CCNCC2)c(-c2ccc(C(F)(F)F)cc2)nn1-c1nc2ccccc2[nH]1 [Compound I-552, 1-(1H-1,3-benzodiazol-2-yl)-4-[2-(piperidin-4-yl)ethyl]-3-[4-(trifluoromethyl)phenyl]-1H-pyrazol-5-ol] | 91.4 | 91.4 | 554 | 1040 | 2.17E + 01 minutes | 1.04E- 02 | 50.5 | 50.5 | – | – | Kd (HIV-1 NefNL4-3; [2]): 749 nM; Kd (HIV-1 NefNL4-3; [5]): 16500 nM
6 | Oc1c(CCc2ccc(F)cc2)c(CC2CCNCC2)nn1-c1nc2ccccc2[nH]1 [Compound I-553, 1-(1H-1,3-benzodiazol-2-yl)-4-[2-(4-fluorophenyl)ethyl]-3-[(piperidin-4-yl)methyl]-1H-pyrazol-5-ol] | – | 62.3 | 1230 | – | – | – | – | 74.3 | – | – | –
7 | Oc1c(CCC2CCNCC2)c(C2CC2)nn1-c1nc2cc(Cl)ccc2[nH]1 [Compound I-554, 1-(5-chloro-1H-1,3-benzodiazol-2-yl)-3-cyclopropyl-4-[2-(piperidin-4-yl)ethyl]-1H-pyrazol-5-ol] | 95.0 | 95.0 | 56.2 | 0.00315 | 3.33E + 06 minutes | 3.65E- 02 | 12.2 | 12.2 | – | – | Kd (HIV-1 NefNL4-3; [2]): 0.00315 nM; Kd (HIV-1 NefNL4-3; [5]): 2130 nM
8 | Oc1c(CCC2CCNCC2)c(-c2ccc(C(F)(F)F)cn2)nn1-c1nc2cc(Br)ccc2[nH]1 [Compound I-555, 1-(5-bromo-1H-1,3-benzodiazol-2-y1)-4-[2-(piperidin-4-yl)ethyl]-3-[5-(trifluoromethyl)pyridin-2-yl]-1H-pyrazol-5-ol] | – | – | – | – | – | – | – | – | – | – | Percent Viability @ 1 μM (TZM-bl cells) (TZM-bl cell line; Table 1, uninfected TZM-bl cells, Cell Titer Blue): 104.6%; Kd (HIV-1 NefNL4-3; Table 1, 1:1 Langmuir fit where the KD2 cell says '1 to 1 fitting', else 2-site fit, read-out: Nef NL4-3 Binding, SPR 1:1 or 2-site fitting KD1): 875 nM; HIV-1 Infectivity % Inhibition Norm. to Δ-Nef @ 1 μM (HIV-1NL4-3; Table 1, TZM-bl cells, 1 μM, 48 h, 100% = Nef-defective HIV-1): −118.0%
9 | Oc1c(CCc2ccc(F)cc2)c(CC2CCCNC2)nn1-c1nc2ccccc2[nH]1 (stereo not drawn) [Compound I-556, 1-(1H-1,3-benzodiazol-2-yl)-4-[2-(4-fluorophenyl)ethyl]-3-[(piperidin-3-yl)methyl]-1H-pyrazol-5-ol] | – | 86.1 | 783 | – | – | – | – | 18.1 | – | – | –
10 | Oc1c(CCc2ccc(F)cc2)c(-c2ccc(C(F)(F)F)cn2)nn1-c1cc(C(F)(F)F)n[nH]1 [Compound I-602, 4-[2-(4-fluorophenyl)ethyl]-5′-(trifluoromethyl)-3-[5-(trifluoromethyl)pyridin-2-yl]-2′H-[1,3′-bipyrazol]-5-ol] | – | 97.2 | – | – | – | – | – | – | No interaction | 73.8 | –
11 | CS(=O)(=O)c1ccc(-c2nn(-c3cc(C(F)(F)F)n[nH]3)c(O)c2CCc2ccc(F)cc2)cc1 [Compound I-603, 4-[2-(4-fluorophenyl)ethyl]-3-(4-methanesulfonylphenyl)-5′-(trifluoromethyl)-2′H-[1,3′-bipyrazol]-5-ol] | 100 | 106.0 | 1830 | 35100 | 2.18E + 00 minutes | 1.19E- 02 | 57.8 | – | – | 57.8 | Kd (HIV-1 NefNL4-3; Nef NL4-3 Binding, SPR 1:1 or 2-site fitting KD2, Table 2, 2-site fit, second component): 3600 nM; Kd (HIV-1 NefNL4-3; Nef NL4-3 Binding, SPR 2-state fitting KD, Table 2, 2-step induced-fit model): 58 nM
12 | CS(=O)(=O)c1cccc(-c2nn(-c3cc(C(F)(F)F)n[nH]3)c(O)c2CCC2CCOCC2)c1 [Compound I-608, 3-(3-methanesulfonylphenyl)-4-[2-(oxan-4-yl)ethyl]-5′-(trifluoromethyl)-2′H-[1,3′-bipyrazol]-5-ol] | – | 101.2 | – | – | – | – | – | – | No interaction | 5.3 | –
13 | CS(=O)(=O)c1ccc(-c2nn(-c3cc(C(F)(F)F)n[nH]3)c(O)c2CCC2CCOCC2)cc1 [Compound I-611, 3-(4-methanesulfonylphenyl)-4-[2-(oxan-4-yl)ethyl]-5′-(trifluoromethyl)-2′H-[1,3′-bipyrazol]-5-ol] | – | 99.6 | – | – | – | – | – | – | No interaction | 65.7 | –
14 | Oc1c(CCc2ccncc2)c(-c2cccc(F)c2)nn1-c1cc(C(F)(F)F)n[nH]1 [Compound I-615, 3-(3-fluorophenyl)-4-[2-(pyridin-4-yl)ethyl]-5′-(trifluoromethyl)-2′H-[1,3′-bipyrazol]-5-ol] | – | 98.9 | – | – | – | – | – | – | No interaction | 47.9 | –
15 | O=C(O)c1ccc(CCc2c(-c3ccccc3)nn(-c3cc(C(F)(F)F)n[nH]3)c2O)cc1 [Compound I-618, 4-{2-[5-hydroxy-3-phenyl-5′-(trifluoromethyl)-2′H-[1,3′-bipyrazol]-4-yl]ethyl}benzoic acid] | – | 93.8 | – | – | – | – | – | – | No interaction | 0 | –
16 | Oc1c(CCc2ccc(F)cc2)c(-c2ccc(C(F)(F)F)cc2)nn1-c1cc(C2CC2)n[nH]1 [Compound I-619, 5′-cyclopropyl-4-[2-(4-fluorophenyl)ethyl]-3-[4-(trifluoromethyl)phenyl]-2′H-[1,3′-bipyrazol]-5-ol] | – | 105.5 | – | – | – | – | – | – | No interaction | 0 | –
17 | Oc1c(CC2CCOCC2)c(C2CCOCC2)nn1-c1cc(C(F)(F)F)n[nH]1 [Compound I-621, 3-(oxan-4-yl)-4-[(oxan-4-yl)methyl]-5′-(trifluoromethyl)-2′H-[1,3′-bipyrazol]-5-ol] | – | 95.3 | – | – | – | – | – | – | No interaction | 42.4 | –
18 | Oc1c(CC2CCOCC2)c(C2CC2)nn1-c1cc(C(F)(F)F)n[nH]1 [Compound I-622, 3-cyclopropyl-4-[(oxan-4-yl)methyl]-5′-(trifluoromethyl)-2′H-[1,3′-bipyrazol]-5-ol] | – | 98.5 | – | – | – | – | – | – | No interaction | 4.9 | –
